pIC50: −log10 of the molar value.
What was measured:
Format in all cases: biochemical
Conditions in all cases: Enzymatic Data
[1] = molecular target: T1, PI3K alfa (Homo sapiens, UniProt P42336); test: PI3K alfa enzymatic assay (Kinase-Glo luminescence)
T1 construct: p85(iSH2) fusion partner (same polypeptide; see partner chain) (N); 12x Gly linker (N); His tag (C); made in house; host or cells: baculovirus; Tn5 (Trichoplusia ni) or TiniPro insect cells
Description: (§1) In a more preferred assay, the kinase reaction is performed in a final volume of 10 μL per well of a low volume non binding CORNING, 384 well black plate (Cat. No. #3676). The final concentrations of ATP and phosphatidyl inositol (PI) in the assay are 1 μM and 10 μg/mL respectively. The reaction is started by the addition of ATP.
(§2) The components of the assay are added per well as follows:
(§3) 50 nL test compounds in 90% DMSO per well, in columns 1-20, 8 concentrations (⅓ and 1/3.33 serial dilution step) in single. • Low control: 50 nL of 90% DMSO in half the wells of columns 23-24 (0.45% in final). • High control: 50 nL of reference compound (e.g. compound of Example 7 in WO 2006/122806, incorporated by reference herein that regard) in the other half of columns 23-24 (2.5 μM in final). • Standard: 50 nL of reference compound as just mentioned diluted as the test compounds in columns 21-22 • 20 mL ‘buffer’ are prepared per assay: • 200 μL of 1M TRIS HCl pH7.5 (10 mM in final) • 60 μL of 1M MgCl2 (3 mM in final) • 500 μL of 2M NaCl (50 mM in final) • 100 μL of 10% CHAPS (0.05% in final) • 200 μL of 100 mM DTT (1 mM in final) • 18.94 mL of nanopure water • 10 mL ‘PI’ are prepared per assay: • 200 μL of 1 mg/ml L-alpha-Phosphatidylinositol (Liver Bovine, Avanti Polar Lipids Cat. No. 840042C MW=909.12) prepared in 3% OctylGlucoside ([…]) • 9.8 mL of ‘buffer’ • 10 mL ‘ATP’ are prepared per assay: • 6.7 μL of 3 mM stock of ATP giving a final concentration of 1 μM per well • 10 mL of ‘buffer’ • 2.5 mL of each PI3K construct are prepared per assay in ‘PI’ with the following final concentration: • 10 nM PI3K alfa BV-1075 • 25 nM beta BV-949 • 10 nM delta BV-1060 • 150 nM gamma BV-950 • 5 μL of ‘PI/PI3K’ are added per well. • 5 μl ‘ATP’ are added per well to start the reaction. • The plates are then incubated at room temperature for 60 minutes (alfa, beta, delta) or 120 minutes (gamma). • The reaction is terminated by the addition of 10 μL Kinase-Glo (Promega Cat. No. #6714). • The assay plates are read after 10 minutes in Synergy 2 reader (BioTek, Vermont USA) with an integration time of 100 milliseconds and sensitivity set to 191. • Output: The High control is around 60′000 counts and the Low control is 30′000 or lower • This luminescence assay gives a useful Z′ ratio between 0.4 and 0.7 The Z′ value is a universal measurement of the robustness of an assay. A Z′ between 0.5 and 1.0 is considered an excellent assay.
(§4) IC50 is determined by a four parameter curve fitting routine that comes aloneg with “excel fit”. A 4 Parameter logistic equation is used to calculate IC50 values (IDBS XLfit) of the percentage inhibition of each compound at 8 concentrations (usually 10, 3.0, 1.0, 0.3, 0.1, 0.030, 0.010 and 0.003 μM). Alternatively, IC50 values are calculated using idbsXLfit model 204, which is a 4 parameter logistic model.

[2] = molecular target: T2, PI3K beta (Homo sapiens, UniProt P42338); test: PI3K beta enzymatic assay (Kinase-Glo luminescence)
T2 construct: for the full-length p110-b subunit are generated and fused by overlapping PCR; p85(iSH2) fusion partner (same polypeptide; see partner chain) (N); Gly linker (N); His tag (C); made in house; host or cells: baculovirus; Tn5 (Trichoplusia ni) or TiniPro insect cells
T2 sequence (P42338 with tags, fused parts or gaps limits assumed): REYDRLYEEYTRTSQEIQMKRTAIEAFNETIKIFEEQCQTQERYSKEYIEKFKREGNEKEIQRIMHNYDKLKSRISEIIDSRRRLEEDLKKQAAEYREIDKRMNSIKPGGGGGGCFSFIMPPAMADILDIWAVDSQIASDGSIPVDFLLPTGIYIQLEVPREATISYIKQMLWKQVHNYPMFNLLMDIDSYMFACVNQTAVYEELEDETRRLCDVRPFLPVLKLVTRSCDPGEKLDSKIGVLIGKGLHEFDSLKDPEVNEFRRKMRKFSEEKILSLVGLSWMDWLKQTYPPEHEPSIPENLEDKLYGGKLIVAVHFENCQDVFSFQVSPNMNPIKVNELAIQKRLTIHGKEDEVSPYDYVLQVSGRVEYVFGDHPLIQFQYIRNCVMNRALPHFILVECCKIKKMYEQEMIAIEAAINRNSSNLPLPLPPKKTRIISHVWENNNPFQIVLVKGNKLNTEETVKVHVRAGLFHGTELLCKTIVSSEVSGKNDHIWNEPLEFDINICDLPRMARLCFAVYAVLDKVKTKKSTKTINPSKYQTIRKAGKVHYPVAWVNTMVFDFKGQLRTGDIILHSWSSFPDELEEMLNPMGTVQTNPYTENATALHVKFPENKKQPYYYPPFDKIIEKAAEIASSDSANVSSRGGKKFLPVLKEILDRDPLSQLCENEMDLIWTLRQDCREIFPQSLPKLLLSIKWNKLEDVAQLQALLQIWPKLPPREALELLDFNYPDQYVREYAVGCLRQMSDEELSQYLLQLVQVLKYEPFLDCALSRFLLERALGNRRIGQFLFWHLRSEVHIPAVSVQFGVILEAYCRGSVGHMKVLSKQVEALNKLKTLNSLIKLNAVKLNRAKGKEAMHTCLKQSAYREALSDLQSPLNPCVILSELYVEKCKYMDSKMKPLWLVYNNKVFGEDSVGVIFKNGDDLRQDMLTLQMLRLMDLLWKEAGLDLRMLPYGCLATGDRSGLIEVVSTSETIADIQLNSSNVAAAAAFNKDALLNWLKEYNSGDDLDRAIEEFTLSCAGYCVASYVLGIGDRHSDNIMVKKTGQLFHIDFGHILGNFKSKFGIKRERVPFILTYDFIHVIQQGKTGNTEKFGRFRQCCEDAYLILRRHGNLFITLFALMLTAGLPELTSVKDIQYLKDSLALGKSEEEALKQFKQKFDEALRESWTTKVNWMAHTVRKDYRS
Description: as §1, §2, §3
PI3Kβ BV-949 p85(iSH2)-Gly linker-p110b (Full-Length)-C-Term His Tag
as §4

[3] = molecular target: T3, PI3K delta (Homo sapiens, UniProt O00329); test: PI3K delta enzymatic assay (Kinase-Glo luminescence)
T3 construct: for the full-length p110-d subunit are generated and fused by overlapping PCR; p85(iSH2) fusion partner (same polypeptide; see partner chain) (N); Gly linker (N); His tag (C); made in house; host or cells: baculovirus; Tn5 (Trichoplusia ni) or TiniPro insect cells
T3 sequence (O00329 with tags, fused parts or gaps limits assumed): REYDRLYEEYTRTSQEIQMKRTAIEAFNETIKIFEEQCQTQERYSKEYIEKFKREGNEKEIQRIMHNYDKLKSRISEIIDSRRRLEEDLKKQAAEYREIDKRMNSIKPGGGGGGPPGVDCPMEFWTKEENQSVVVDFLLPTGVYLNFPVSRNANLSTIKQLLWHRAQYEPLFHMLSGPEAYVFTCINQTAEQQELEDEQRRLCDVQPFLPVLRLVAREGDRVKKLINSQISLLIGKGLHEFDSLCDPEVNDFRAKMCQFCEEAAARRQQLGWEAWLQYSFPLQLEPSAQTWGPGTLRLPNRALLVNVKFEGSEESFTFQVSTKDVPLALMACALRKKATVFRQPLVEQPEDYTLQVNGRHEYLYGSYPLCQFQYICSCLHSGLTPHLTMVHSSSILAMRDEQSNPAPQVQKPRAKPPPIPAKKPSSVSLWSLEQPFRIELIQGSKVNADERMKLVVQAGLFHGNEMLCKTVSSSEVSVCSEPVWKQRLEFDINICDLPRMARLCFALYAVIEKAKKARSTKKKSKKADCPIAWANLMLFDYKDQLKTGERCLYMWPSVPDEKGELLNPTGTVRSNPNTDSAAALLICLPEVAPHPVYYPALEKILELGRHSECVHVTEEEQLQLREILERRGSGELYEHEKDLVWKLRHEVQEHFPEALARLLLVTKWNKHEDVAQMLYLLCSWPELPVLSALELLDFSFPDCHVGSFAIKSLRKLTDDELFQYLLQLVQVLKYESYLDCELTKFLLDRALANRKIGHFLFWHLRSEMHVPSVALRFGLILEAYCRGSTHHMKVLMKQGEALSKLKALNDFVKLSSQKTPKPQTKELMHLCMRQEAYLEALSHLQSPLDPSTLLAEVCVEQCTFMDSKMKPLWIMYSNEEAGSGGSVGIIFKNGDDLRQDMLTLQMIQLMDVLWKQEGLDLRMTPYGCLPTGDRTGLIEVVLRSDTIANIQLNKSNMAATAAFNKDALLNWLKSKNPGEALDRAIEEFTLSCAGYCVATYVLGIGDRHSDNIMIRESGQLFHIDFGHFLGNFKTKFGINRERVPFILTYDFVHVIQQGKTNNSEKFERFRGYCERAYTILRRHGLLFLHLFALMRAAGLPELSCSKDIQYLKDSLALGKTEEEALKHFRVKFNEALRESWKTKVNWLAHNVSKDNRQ
Description: as §1, §2, §3
PI3Kδ BV-1060 p85(iSH2)-Gly Linker-p110d (Full-Length)-C-term His Tact
as §4

[4] = molecular target: T4, PI3K gamma (Homo sapiens, UniProt P48736); test: PI3K gamma enzymatic assay (Kinase-Glo luminescence)
T4 construct: His tag (C); made in house; host or cells: construct from Roger Williams lab (MRC LMB); baculovirus (pVL1393); Tn5 (Trichoplusia ni) or TiniPro insect cells
T4 sequence (P48736 144-1102 limits assumed): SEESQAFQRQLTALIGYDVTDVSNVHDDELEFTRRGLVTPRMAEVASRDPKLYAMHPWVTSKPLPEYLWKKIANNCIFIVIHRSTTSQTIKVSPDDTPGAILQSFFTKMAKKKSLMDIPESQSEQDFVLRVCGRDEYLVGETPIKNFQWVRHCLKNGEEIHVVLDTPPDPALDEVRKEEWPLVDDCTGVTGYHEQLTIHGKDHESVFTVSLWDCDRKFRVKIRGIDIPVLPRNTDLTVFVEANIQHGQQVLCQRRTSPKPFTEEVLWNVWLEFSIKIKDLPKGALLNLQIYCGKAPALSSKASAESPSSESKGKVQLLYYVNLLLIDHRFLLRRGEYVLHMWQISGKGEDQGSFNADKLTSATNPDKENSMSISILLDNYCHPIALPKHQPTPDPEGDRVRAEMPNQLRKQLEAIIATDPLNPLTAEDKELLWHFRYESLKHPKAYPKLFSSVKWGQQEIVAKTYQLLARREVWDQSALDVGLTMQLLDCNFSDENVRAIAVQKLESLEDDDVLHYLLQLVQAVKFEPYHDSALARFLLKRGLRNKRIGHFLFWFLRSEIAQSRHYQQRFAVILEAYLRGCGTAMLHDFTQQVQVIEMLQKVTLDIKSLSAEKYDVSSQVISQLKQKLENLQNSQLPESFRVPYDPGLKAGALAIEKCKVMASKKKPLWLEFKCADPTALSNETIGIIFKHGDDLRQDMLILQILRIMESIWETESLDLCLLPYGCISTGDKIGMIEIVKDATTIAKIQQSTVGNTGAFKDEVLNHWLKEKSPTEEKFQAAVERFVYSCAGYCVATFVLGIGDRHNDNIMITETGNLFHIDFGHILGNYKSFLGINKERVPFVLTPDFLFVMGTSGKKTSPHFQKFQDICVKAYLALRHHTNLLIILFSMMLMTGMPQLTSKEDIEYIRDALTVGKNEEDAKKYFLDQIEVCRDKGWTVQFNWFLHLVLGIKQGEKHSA
Description: as §1, §2, §3, §4

T1 sequence (P42336 with tags, fused parts or gaps limits assumed): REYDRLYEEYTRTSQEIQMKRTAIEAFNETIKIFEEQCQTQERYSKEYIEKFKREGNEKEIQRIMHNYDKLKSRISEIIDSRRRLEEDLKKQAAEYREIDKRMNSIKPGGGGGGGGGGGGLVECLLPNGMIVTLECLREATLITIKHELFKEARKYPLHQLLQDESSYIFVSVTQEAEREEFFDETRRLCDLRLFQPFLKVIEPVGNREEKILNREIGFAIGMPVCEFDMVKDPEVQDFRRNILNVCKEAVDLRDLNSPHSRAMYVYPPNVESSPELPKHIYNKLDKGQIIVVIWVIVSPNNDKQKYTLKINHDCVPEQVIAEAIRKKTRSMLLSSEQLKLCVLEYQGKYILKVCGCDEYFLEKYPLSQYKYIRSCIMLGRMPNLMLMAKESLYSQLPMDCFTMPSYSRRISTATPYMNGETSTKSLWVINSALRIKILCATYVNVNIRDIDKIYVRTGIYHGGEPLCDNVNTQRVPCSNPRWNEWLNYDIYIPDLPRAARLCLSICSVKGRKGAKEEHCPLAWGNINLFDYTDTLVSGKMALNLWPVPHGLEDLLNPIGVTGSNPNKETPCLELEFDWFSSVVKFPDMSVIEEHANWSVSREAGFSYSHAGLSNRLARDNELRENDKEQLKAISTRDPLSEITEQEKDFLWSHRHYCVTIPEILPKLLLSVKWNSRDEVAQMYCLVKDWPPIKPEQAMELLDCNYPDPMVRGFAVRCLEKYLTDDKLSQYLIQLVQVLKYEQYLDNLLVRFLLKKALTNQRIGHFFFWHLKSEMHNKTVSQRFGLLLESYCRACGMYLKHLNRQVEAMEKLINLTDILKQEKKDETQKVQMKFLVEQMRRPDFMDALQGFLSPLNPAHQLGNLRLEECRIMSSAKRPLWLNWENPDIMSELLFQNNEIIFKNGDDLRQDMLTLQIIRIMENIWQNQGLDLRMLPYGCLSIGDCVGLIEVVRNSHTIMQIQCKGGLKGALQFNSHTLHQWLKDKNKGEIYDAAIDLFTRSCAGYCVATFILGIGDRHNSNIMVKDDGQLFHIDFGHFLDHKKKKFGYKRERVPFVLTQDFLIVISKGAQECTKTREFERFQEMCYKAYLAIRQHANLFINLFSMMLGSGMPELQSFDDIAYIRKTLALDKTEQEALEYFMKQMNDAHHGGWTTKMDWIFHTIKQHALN

| pIC50 [1] | pIC50 [2] | pIC50 [3] | pIC50 [4] | SMILES |
| --- | --- | --- | --- | --- |
| 6.69 | 5.77 | 5.87 | 6.62 | COc1ccc(-c2ccc3nc(C)c(-c4ccc(F)nc4)n3n2)cc1OC [Example 1, 6-(3,4-Dimethoxy-phenyl)-3-(6-fluoro-pyridin-3-yl)-2-methyl-imidazo[1,2-b]pyridazine] |
| 7.02 | 5.64 | 6.29 | – | COc1ccc(-c2c(C)nc3ccc(-c4ccc(OC)c(OC)c4)nn23)cn1 [Example 3] |
| 7.36 | 5.92 | 6.82 | 6.46 | COc1ccc(-c2ccc3nc(C)c(-c4ccc(C#N)nc4)n3n2)cc1OC [Example 4] |
| 6.95 | 5.80 | 5.96 | 6.21 | COc1ccc(-c2ccc3nc(C)c(-c4ccc(N5CCOCC5)nc4)n3n2)cc1OC [Example 5] |
| 6.34 | 5.38 | 5.57 | 5.73 | COc1ccc(-c2ccc3nc(C)c(-c4cncc(C#N)c4)n3n2)cc1OC [Example 6] |
| 7.02 | 6.01 | 6.16 | 6.38 | COc1ccc(-c2ccc3nc(C)c(-c4ccc(N)nc4)n3n2)cc1OC [Example 7] |
| 7.38 | 5.93 | 6.34 | 6.52 | COc1ccc(-c2ccc3nc(C)c(-c4ccc(O)nc4)n3n2)cc1OC [Example 8, 5-[6-(3,4-dimethoxy-phenyl)-2-methyl-imidazo[1,2-b]pyridazin-3-yl]-pyridin-2-ol] |
| 6.96 | 6.21 | 5.62 | 6.27 | COc1ccc(-c2ccc3nc(C)c(-c4ccc(N5CCNCC5)nc4)n3n2)cc1OC [Example 11, 6-(3,4-Dimethoxy-phenyl)-2-methyl-3-(6-piperazin-1-yl-pyridin-3-yl)-imidazo[1,2-b]pyridazine] |
| 7.24 | 5.38 | < 4.60 | < 4.60 | CCOc1ccc(-c2ccc3nc(C)c(-c4ccc(-c5ccc(C#N)nc5)nc4)n3n2)cc1OC [Example 13, 5-[6-(4-Ethoxy-3-methoxy-phenyl)-2-methyl-imidazo[1,2-b]pyridazin-3-yl]-[2,3]bipyridinyl-6′-carbonitrile] |
| 6.86 | 5.29 | 5.69 | 6.16 | CCOc1ccc(-c2ccc3nc(C)c(-c4ccc(N5CCOCC5)nc4)n3n2)cc1OC [Example 14, 6-(4-Ethoxy-3-methoxy-phenyl)-2-methyl-3-(6-morpholin-4-yl-pyridin-3-yl)-imidazo[1,2-b]pyridazine] |
| 8.23 | 6.82 | 7.16 | 6.80 | COc1ccc(-c2ccc3nc(C)c(-c4cnc(N)c(C(F)(F)F)c4)n3n2)cc1OC [Example 15, 5-[6-(3,4-Dimethoxy-phenyl)-2-methyl-imidazo[1,2-b]pyridazin-3-yl]-3-trifluoromethyl-pyridin-2-ylamine] |
| < 4.60 | < 4.60 | < 4.60 | < 4.60 | COc1ccc(-c2ccc3nc(C)c(-c4ncccc4C)n3n2)cc1OC [Example 16, 6-(3,4-Dimethoxy-phenyl)-2-methyl-3-(3-methyl-pyridin-2-yl)-imidazo[1,2-b]pyridazine] |
| 6.74 | 5.35 | 5.69 | 6.10 | COc1ccc(-c2ccc3nc(C)c(-c4cnccn4)n3n2)cc1OC [Example 17, 6-(3,4-Dimethoxy-phenyl)-2-methyl-3-pyrazin-2-yl-imidazo[1,2-b]pyridazine] |
| < 4.60 | 5.29 | < 4.60 | < 4.60 | COc1ccc(-c2ccc(-c3ccc4nc(C)c(-c5ccc(N6CCOCC6)nc5)n4n3)cc2)cc1 [Example 18, 6-(4′-Methoxy-biphenyl-4-yl)-2-methyl-3-(6-morpholin-4-yl-pyridin-3-yl)-imidazo[1,2-b]pyridazine] |
| 5.89 | 4.91 | 5.26 | 5.29 | Cc1nc2ccc(-c3ccc(S(C)(=O)=O)cc3)nn2c1-c1cncc(C#N)c1 [Example 19, 5-[6-(4-Methanesulfonyl-phenyl)-2-methyl-imidazo[1,2-b]pyridazin-3-yl]-nicotinonitrile] |
| 6.66 | 5.49 | 5.86 | 6.45 | COc1ccc(-c2ccc3nc(C)c(-c4cc[nH]n4)n3n2)cc1OC [Example 20, 6-(3,4-Dimethoxy-phenyl)-2-methyl-3-(1H-pyrazol-3-yl)-imidazo[1,2-b]pyridazine] |
| 6.39 | < 5.04 | 6.39 | 6.18 | COc1ccc(-c2ccc3nc(C)c(-c4ccn(S(=O)(=O)c5ccc(C#N)cc5)n4)n3n2)cc1OC [Example 21, 4-{3-[6-(3,4-Dimethoxy-phenyl)-2-methyl-imidazo[1,2-b]pyridazin-3-yl]-pyrazole-1-sulfonyl}-benzonitrile] |
| 6.11 | < 5.04 | 6.05 | 5.82 | COc1ccc(S(=O)(=O)n2ccc(-c3c(C)nc4ccc(-c5ccc(OC)c(OC)c5)nn34)n2)cc1 [Example 22, 6-(3,4-Dimethoxy-phenyl)-3-[1-(4-methoxy-benzenesulfonyl)-1H-pyrazol-3-yl]-2-methyl-imidazo[1,2-b]pyridazine] |
| 6.87 | < 5.04 | 6.91 | 6.29 | COc1ccc(-c2ccc3nc(C)c(-c4ccn(S(=O)(=O)c5cccc(C#N)c5)n4)n3n2)cc1OC [Example 23, 3-{3-[6-(3,4-Dimethoxy-phenyl)-2-methyl-imidazo[1,2-b]pyridazin-3-yl]-pyrazole-1-sulfonyl}-benzonitrile] |
| 7.41 | 7.29 | 7.28 | 6.68 | COc1cc(-c2ccc3nc(C)c(-c4cnc(N)c(C(F)(F)F)c4)n3n2)ccc1OCCN [Example 24, 5-{6-[4-(2-Amino-ethoxy)-3-methoxy-phenyl]-2-methyl-imidazo[1,2-b]pyridazin-3-yl}-3-trifluoromethyl-pyridin-2-ylamine] |
| 7.82 | 6.71 | 7.62 | 6.29 | COc1cc(-c2ccc3nc(C)c(-c4cnc(N)c(C(F)(F)F)c4)n3n2)ccc1OCCCN [Example 25, 5-{6-[4-(3-Amino-propoxy)-3-methoxy-phenyl]-2-methyl-imidazo[1,2-b]pyridazin-3-yl}-3-trifluoromethyl-pyridin-2-ylamine] |
| 6.34 | < 5.04 | < 5.04 | 5.64 | COc1cc(-c2ccc3nc(C)c(-c4cnc(N)c(C(F)(F)F)c4)n3n2)ccc1OCCNC(=O)c1cccc(C#N)c1 [Example 27] |
